# According to the supplement of paper PMC9663587:
# Tests used:
# Assay in all cases: GR value, 72 h; higher = faster growth (1 = untreated, <0 = killing);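 note: breast cancer and non-malignant breast epithelial lines, nine half-log doses, viable cells counted by Hoechst and LIVE/DEAD dye imaging versus time-zero plates and DMSO controls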
# [1] = compound: CCN1CCN(Cc2ccc(Nc3ncc(F)c(-c4cc(F)c5nc(C)n(C(C)C)c5c4)n3)nc2)CC1
# [2] = compound: CCOc1cc2ncc(C#N)c(Nc3ccc(OCc4ccccn4)c(Cl)c3)c2cc1NC(=O)/C=C/CN(C)C [Neratinib/HKI272]
# [3] = compound: CCc1cnn2c(NCc3ccc[n+]([O-])c3)cc(N3CCCC[C@H]3CCO)nc12
# [4] = compound: CN(C)C(=O)c1cc2cnc(Nc3ccc(N4CCNCC4)cn3)nc2n1C1CCCC1 [LEE011/Ribociclib]
# [5] = compound: CN(C)C/C=C/C(=O)Nc1ccc(C(=O)Nc2cccc(Nc3ncc(Cl)c(-c4c[nH]c5ccccc45)n3)c2)cc1 [THZ1]
# [6] = compound: CN1CC[C@H](c2c(O)cc(O)c3c(=O)cc(-c4ccccc4Cl)oc23)[C@H](O)C1 [Flavopiridol]
cell line,measurement,setting,value
MCF7,GR value,[1]; 0.001 µM,0.893 GR
same,GR value,[1]; 0.003162 µM,0.789 GR
same,GR value,[1]; 0.01 µM,0.512 GR
same,GR value,[1]; 0.03162 µM,0.349 GR
same,GR value,[1]; 0.1 µM,0.236 GR
same,GR value,[1]; 0.3162 µM,0.235 GR
same,GR value,[1]; 1 µM,0.0993 GR
same,GR value,[1]; 3.162 µM,-0.189 GR
same,GR value,[1]; 10 µM,-0.268 GR
same,GR value,[2]; 0.0003162 µM,1.04 GR
same,GR value,[2]; 0.001 µM,1.03 GR
same,GR value,[2]; 0.003162 µM,0.998 GR
same,GR value,[2]; 0.01 µM,0.951 GR
same,GR value,[2]; 0.03162 µM,0.947 GR
same,GR value,[2]; 0.1 µM,0.931 GR
same,GR value,[2]; 0.3162 µM,0.774 GR
same,GR value,[2]; 1 µM,0.657 GR
same,GR value,[2]; 3.162 µM,0.0611 GR
same,GR value,[3]; 0.0001 µM,1.02 GR
same,GR value,[3]; 0.0003162 µM,0.997 GR
same,GR value,[3]; 0.001 µM,0.979 GR
same,GR value,[3]; 0.003162 µM,0.967 GR
same,GR value,[3]; 0.01 µM,0.3 GR
same,GR value,[3]; 0.03162 µM,-0.247 GR
same,GR value,[3]; 0.1 µM,-0.276 GR
same,GR value,[3]; 0.3162 µM,-0.241 GR
same,GR value,[3]; 1 µM,-0.255 GR
same,GR value,[4]; 0.001 µM,0.87 GR
same,GR value,[4]; 0.003162 µM,0.786 GR
same,GR value,[4]; 0.01 µM,0.682 GR
same,GR value,[4]; 0.03162 µM,0.651 GR
same,GR value,[4]; 0.1 µM,0.53 GR
same,GR value,[4]; 0.3162 µM,0.414 GR
same,GR value,[4]; 1 µM,0.407 GR
same,GR value,[4]; 3.162 µM,0.275 GR
same,GR value,[4]; 10 µM,0.295 GR
same,GR value,[5]; 0.0001 µM,1.08 GR
same,GR value,[5]; 0.0003162 µM,0.931 GR
same,GR value,[5]; 0.001 µM,0.926 GR
same,GR value,[5]; 0.003162 µM,0.941 GR
same,GR value,[5]; 0.01 µM,0.78 GR
same,GR value,[5]; 0.03162 µM,0.366 GR
same,GR value,[5]; 0.1 µM,-0.103 GR
same,GR value,[5]; 0.3162 µM,-0.305 GR
same,GR value,[5]; 1 µM,-0.461 GR
same,GR value,[6]; 0.0001 µM,1.08 GR
same,GR value,[6]; 0.0003162 µM,0.929 GR
same,GR value,[6]; 0.001 µM,0.872 GR
same,GR value,[6]; 0.003162 µM,0.964 GR
same,GR value,[6]; 0.01 µM,0.873 GR
same,GR value,[6]; 0.03162 µM,0.834 GR
same,GR value,[6]; 0.1 µM,0.424 GR
same,GR value,[6]; 0.3162 µM,-0.258 GR
same,GR value,[6]; 1 µM,-0.272 GR
